Measured values taken from ChEMBL document CHEMBL5532698, “2,3-Dihydroquinazolin-4(1H)-ones and quinazolin-4(3H)-ones as broad-spectrum cytotoxic agents and their impact on tubulin polymerisation” (RSC Med Chem, 2024).

Key:
[1] = test system: A-431; assay: Antiproliferative activity against human A-431 cells assessed as cell growth inhibition incubated for 72 hrs by MTT assay; assay type: functional
[2] = test system: MCF7; assay: Antiproliferative activity against human MCF7 cells assessed as cell growth inhibition at 25 uM incubated for 72 hrs by MTT assay relative to control; assay type: functional
[3] = test system: BE(2)-C; assay: Antiproliferative activity against human BE2C cells assessed as cell growth inhibition at 25 uM incubated for 72 hrs by MTT assay relative to control; assay type: functional
[4] = test system: DU-145; assay: Antiproliferative activity against human DU-145 cells assessed as cell growth inhibition at 25 uM incubated for 72 hrs by MTT assay relative to control; assay type: functional
[5] = test system: U-87 MG; assay: Antiproliferative activity against human U87 cells assessed as cell growth inhibition at 25 uM incubated for 72 hrs by MTT assay relative to control; assay type: functional, U-87MG ATCC
[6] = test system: DU-145; assay: Antiproliferative activity against human DU-145 cells assessed as cell growth inhibition incubated for 72 hrs by MTT assay; assay type: functional
[7] = Antiproliferative activity against human SJG2 cells assessed as cell growth inhibition incubated for 72 hrs by MTT assay; assay type: functional; details: SJ-G2
[8] = Cytotoxicity against human MCF-10A cells assessed as cell growth inhibition at 25 uM incubated for 72 hrs by MTT assay relative to control; assay type: toxicity, cell-based
[9] = test system: A2780; assay: Antiproliferative activity against human A2780 cells assessed as cell growth inhibition incubated for 72 hrs by MTT assay; assay type: functional
[10] = test system: HT-29; assay: Antiproliferative activity against human HT-29 cells assessed as cell growth inhibition at 25 uM incubated for 72 hrs by MTT assay relative to control; assay type: functional
[11] = test system: NCI-H460; assay: Antiproliferative activity against human NCI-H460 cells assessed as cell growth inhibition at 25 uM incubated for 72 hrs by MTT assay relative to control; assay type: functional
[12] = test system: BE(2)-C; assay: Antiproliferative activity against human BE2C cells assessed as cell growth inhibition incubated for 72 hrs by MTT assay; assay type: functional
[13] = test system: MIA PaCa-2; assay: Antiproliferative activity against human MIA PaCa-2 cells assessed as cell growth inhibition at 25 uM incubated for 72 hrs by MTT assay relative to control; assay type: functional
[14] = test system: A-431; assay: Antiproliferative activity against human A-431 cells assessed as cell growth inhibition at 25 uM incubated for 72 hrs by MTT assay relative to control; assay type: functional
[15] = test system: NCI-H460; assay: Antiproliferative activity against human NCI-H460 cells assessed as cell growth inhibition incubated for 72 hrs by MTT assay; assay type: functional
[16] = test system: MIA PaCa-2; assay: Antiproliferative activity against human MIA PaCa-2 cells assessed as cell growth inhibition incubated for 72 hrs by MTT assay; assay type: functional
[17] = test system: MCF7; assay: Antiproliferative activity against human MCF7 cells assessed as cell growth inhibition incubated for 72 hrs by MTT assay; assay type: functional
[18] = test system: HT-29; assay: Antiproliferative activity against human HT-29 cells assessed as cell growth inhibition incubated for 72 hrs by MTT assay; assay type: functional
[19] = Cytotoxicity against human MCF-10A cells assessed as cell growth inhibition incubated for 72 hrs by MTT assay; assay type: toxicity, cell-based
[20] = test system: A2780; assay: Antiproliferative activity against human A2780 cells assessed as cell growth inhibition at 25 uM incubated for 72 hrs by MTT assay relative to control; assay type: functional
[21] = test system: U-87 MG; assay: Antiproliferative activity against human U87 cells assessed as cell growth inhibition incubated for 72 hrs by MTT assay; assay type: functional, U-87MG ATCC
[22] = Antiproliferative activity against human SJG2 cells assessed as cell growth inhibition at 25 uM incubated for 72 hrs by MTT assay relative to control; assay type: functional; details: SJ-G2

| SMILES | GI50 [1] | inhibition at 25 µM [2] | inhibition at 25 µM [3] | inhibition at 25 µM [4] | inhibition at 25 µM [5] | GI50 [6] | GI50 [7] | inhibition at 72 h, 25 µM [8] | GI50 [9] | inhibition at 25 µM [10] | inhibition at 25 µM [11] | GI50 [12] | inhibition at 25 µM [13] | inhibition at 25 µM [14] | GI50 [15] | GI50 [16] | GI50 [17] | GI50 [18] | GI50 at 72 h [19] | inhibition at 25 µM [20] | other results |
| --- | --- | --- | --- | --- | --- | --- | --- | --- | --- | --- | --- | --- | --- | --- | --- | --- | --- | --- | --- | --- | --- |
| O=c1[nH]c(-c2ccc(Br)cc2)nc2ccccc12 | 5.8 µM | 99% | 77% | 98% | 91% | 4.5 µM | 4.3 µM | 91% | 3.9 µM | 91% | 68% | 6.4 µM | 71% | 88% | 5.7 µM | 8.8 µM | 3.8 µM | 5.2 µM | 5.4 µM | 83% | GI50 [21]: 10 µM; inhibition at 25 µM [22]: 66% |
| CCCCCCCCC1NC(=O)c2ccccc2N1 (stereo unspecified) | 7.1 µM | > 100% | 85% | 53% | 39% | > 50 µM | 13 µM | 80% | 4.2 µM | 93% | 61% | 9.2 µM | 75% | 91% | 14 µM | 12 µM | 2.9 µM | 13 µM | 11 µM | 96% | GI50 [21]: > 50 µM; inhibition at 25 µM [22]: 77% |
| O=C1NC(c2ccc(-c3ccccc3)cc2)Nc2ccccc21 (stereo unspecified) | 2.4 µM | > 100% | 92% | > 100% | > 100% | 2.3 µM | 2.6 µM | 98% | 3.8 µM | > 100% | > 100% | 2 µM | > 100% | > 100% | 2.8 µM | 2.3 µM | 1.6 µM | 2.3 µM | 2.3 µM | > 100% | GI50 [21]: 2.2 µM; inhibition at 25 µM [22]: > 100% |
| O=C1NC(c2cccc(Br)c2)Nc2ccccc21 (stereo unspecified) | 2.7 µM | 104% | > 100% | > 100% | 98% | 2.9 µM | 1.9 µM | 99% | 2.6 µM | > 100% | 101% | 2.4 µM | 90% | > 100% | 1.9 µM | 3.2 µM | 2 µM | 2.6 µM | 3.9 µM | 99% | GI50 [21]: 4.1 µM; inhibition at 25 µM [22]: > 100% |
| Cc1ccc(C2NC(=O)c3ccccc3N2)cc1 (stereo unspecified) | 2.3 µM | 90% | 87% | > 100% | > 100% | 3.1 µM | 2.9 µM | 100% | 2.3 µM | > 100% | > 100% | 1.9 µM | 95% | > 100% | 3.2 µM | 3.4 µM | 4 µM | 1.6 µM | 3.1 µM | > 100% | GI50 [21]: 2.6 µM; inhibition at 25 µM [22]: > 100% |
| O=C1NC(/C=C/c2ccco2)Nc2ccccc21 (stereo unspecified) | 2.1 µM | 83% | 100% | 100% | 99% | 4 µM | 3 µM | 100% | 3 µM | 90% | 93% | 2.6 µM | 93% | > 100% | 3.3 µM | 3.6 µM | 7.4 µM | 2.2 µM | 3.4 µM | > 100% | GI50 [21]: 4.3 µM; inhibition at 25 µM [22]: 100% |
| O=C1NC(c2ccc([N+](=O)[O-])cc2)Nc2ccccc21 (stereo unspecified) | 17 µM | > 100% | 53% | 50% | 22% | 26 µM | 10 µM | 58% | 11 µM | 70% | 61% | 10 µM | 52% | 57% | 14 µM | 7.5 µM | 3.8 µM | 8.7 µM | 11 µM | 65% | GI50 [21]: > 50 µM; inhibition at 25 µM [22]: 56% |
| O=C1NC(C2CC=CCC2)Nc2ccccc21 (stereo unspecified) | 3.8 µM | 72% | 97% | 67% | 67% | 19 µM | 17 µM | 89% | 3.9 µM | > 100% | 91% | 5.7 µM | 82% | > 100% | 11 µM | 12 µM | 15 µM | 5.4 µM | 11 µM | 99% | GI50 [21]: 17 µM; inhibition at 25 µM [22]: 87% |
